Assay results reported in ChEMBL document CHEMBL5500393, “Discovery and Optimization of Novel SaFabI Inhibitors as Specific Therapeutic Agents for MRSA Infection” (J Med Chem, 2024).
Converted amounts (≈) assume the structure as drawn. The source made the active and inactive calls. The rule behind the calls is not given here.

Key:
[1] = biological target: T1, Enoyl-[acyl-carrier-protein] reductase [NADPH] FabI (Staphylococcus aureus) (UniProt Q6GI75); experiment: Inhibition of N-terminal his 6 tagged Staphylococcus aureus Fabi (1 to […] residues) expressed in Escherichia coli BL21 at 10 uM incubated for 30 mins in presence of NADPH by fluorescence based microplate reader analysis relative to control
T1 sequence (whole entry): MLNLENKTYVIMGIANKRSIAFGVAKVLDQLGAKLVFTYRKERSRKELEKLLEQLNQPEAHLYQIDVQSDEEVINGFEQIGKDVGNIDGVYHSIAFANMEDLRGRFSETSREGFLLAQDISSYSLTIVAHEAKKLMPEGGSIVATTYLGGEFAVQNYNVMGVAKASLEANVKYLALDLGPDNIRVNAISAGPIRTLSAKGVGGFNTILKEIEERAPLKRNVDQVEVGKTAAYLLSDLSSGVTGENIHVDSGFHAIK

[2] = biological target: T1, Enoyl-[acyl-carrier-protein] reductase [NADPH] FabI (Staphylococcus aureus); experiment: Inhibition of N-terminal his 6 tagged Staphylococcus aureus Fabi (1 to […] residues) expressed in Escherichia coli BL21 at 1 uM incubated for 30 mins in presence of NADPH by fluorescence based microplate reader analysis relative to control
[3] = biological target: T2, Enoyl-[acyl-carrier-protein] reductase [NADPH] FabI (Staphylococcus aureus, UniProt Q6GI75); experiment: Inhibition of N-terminal his 6 tagged Staphylococcus aureus Fabi (1 to […] residues) expressed in Escherichia coli BL21 incubated for 30 mins in presence of NADPH by fluorescence based microplate reader analysis
T2 sequence (Q6GI75 whole entry): T1 sequence (whole entry)

[4] = Inhibition of N-terminal his 6 tagged Escherichia coli Fabi (1 to 789 residues) expressed in Escherichia coli BL21 incubated for 30 mins in presence of NADH by fluorescence based microplate reader analysis
Staphylococcus aureus [5] = experiment: Antimicrobial activity against […] Staphylococcus aureus ATCC43300 measured after 24 hrs by CLSI protocol based microdilution method; type: functional
Staphylococcus aureus [6] = experiment: Antimicrobial activity against […] Staphylococcus aureus USA300 measured after 24 hrs by CLSI protocol based microdilution method; type: functional
Staphylococcus aureus [7] = experiment: Antimicrobial activity against […] Staphylococcus aureus NRS271 measured after 24 hrs by CLSI protocol based microdilution method; type: functional
Staphylococcus aureus [8] = experiment: Antimicrobial activity against methicillin-susceptible Staphylococcus aureus ATCC29213 measured after 24 hrs by CLSI protocol based microdilution method; type: functional
Pseudomonas aeruginosa = experiment: Antimicrobial activity against Pseudomonas aeruginosa PAO1 measured after 24 hrs by CLSI protocol based microdilution method; type: functional
[9] = Cytotoxicity against HEK293 cells assessed as survival rate at 800 uM measured after 48 hrs by CCK-8 method relative to control; type: toxicity, cell-based; conditions: human, read-out: Survival
HepG2 = experiment: Cytotoxicity against human HepG2 cells assessed as survival rate at 800 uM measured after 48 hrs by CCK-8 method relative to control; type: functional; conditions: read-out: Survival
[10] = Hemolytic activity in sheep erythrocytes assessed as hemolysis at 64 ug/ml incubated for 1 hr by microplate reader based analysis relative to control; type: toxicity, cell-based, Ovis aries, Erythrocyte; conditions: at 64 µg/mL, read-out: Activity
[11] = Hemolytic activity in sheep erythrocytes assessed as hemolysis at 256 ug/ml incubated for 1 hr by microplate reader based analysis relative to control; type: toxicity, cell-based, Ovis aries, Erythrocyte; conditions: at 256 µg/mL, read-out: Activity
[12] = Selectivity index, ratio of HC50 for sheep erythrocytes to MIC for Staphylococcus aureus; type: toxicity; conditions: read-out: Selectivity Index
Staphylococcus aureus [13] = experiment: Bactericidal activity against […] Staphylococcus aureus ATCC33591 measured upto 24 hr by time-kill assay; type: functional, organism-based
Staphylococcus aureus [14] = experiment: Bactericidal activity against […] Staphylococcus aureus ATCC33591 assessed as reduction in bacterial count at 4 times MIC measured within 24 hrs by time-kill assay; type: functional, organism-based
Staphylococcus aureus [15] = experiment: Bactericidal activity against […] Staphylococcus aureus ATCC33591 assessed as reduction in bacterial count at 8 times MIC measured within 8 to 12 hrs by time-kill assay; type: functional, organism-based; conditions: time 8-12 hrs
Cell membrane [16] = experiment: Induction of cell membrane permeability in methicillin-resistant Staphylococcus aureus ATCC33591 assessed as increase in fluorescence measured after 30 mins by 7-AAD staining based analysis; type: cell membranes
Cell membrane [17] = experiment: Induction of cell membrane permeability in methicillin-resistant Staphylococcus aureus ATCC33591 assessed as fold increase in fluorescence intensity at 0.5 times MIC measured after 30 mins by 7-AAD staining based analysis; type: cell membranes
Cell membrane [18] = experiment: Induction of cell membrane permeability in methicillin-resistant Staphylococcus aureus ATCC33591 assessed as fold increase in fluorescence intensity at 1 times MIC measured after 30 mins by Annexin V-FITC staining based analysis; type: cell membranes
Cell membrane [19] = experiment: Induction of cell membrane damage in methicillin-resistant Staphylococcus aureus ATCC33591 assessed as broken cell surface at 1 times MIC measured after 30 mins by TEM analysis; type: cell membranes
Cell membrane [20] = experiment: Induction of cell membrane damage in methicillin-resistant Staphylococcus aureus ATCC33591 assessed as appearance of inward wrinkling in cell surface at 1 times MIC measured after 30 mins by TEM analysis; type: cell membranes
[21] = biological target: T1, Enoyl-[acyl-carrier-protein] reductase [NADPH] FabI (Staphylococcus aureus); experiment: Binding affinity to N-terminal his 6 tagged Staphylococcus aureus Fabi (1 to […] residues) expressed in Escherichia coli BL21 assessed as increase in thermal stability at 10 ug/ml measured after 1 hr by […] assay; conditions: dose 10.0 µg/ml
[22] = Acute toxicity in female BALB/c mouse assessed as animal death at 800 mg/kg, po measured after 14 days; type: organism-based; conditions: in vivo, 336 h, time 14 day
[23] = Acute toxicity in female BALB/c mouse assessed as effect on body weight at 800 mg/kg, po measured after 14 days; type: organism-based; conditions: in vivo, 336 h, time 14 day
[24] = Acute toxicity in female BALB/c mouse assessed as effect on AST level in serum at 800 mg/kg, po measured after 14 days; type: organism-based; conditions: in vivo, 336 h, time 14 day
[25] = Acute toxicity in female BALB/c mouse assessed as effect on TP level in serum at 800 mg/kg, po measured after 14 days; type: organism-based; conditions: in vivo, 336 h, time 14 day
[26] = Acute toxicity in female BALB/c mouse assessed as effect on UREA level in serum at 800 mg/kg, po measured after 14 days; type: organism-based; conditions: in vivo, 336 h, time 14 day
[27] = Acute toxicity in female BALB/c mouse assessed as effect on lung at 800 mg/kg, po measured after 14 days by H and E staining based analysis; type: organism-based; conditions: in vivo, 336 h, time 14 day
[28] = Acute toxicity in female BALB/c mouse assessed as effect on kidney at 800 mg/kg, po measured after 14 days by H and E staining based analysis; type: organism-based; conditions: in vivo, 336 h, time 14 day
[29] = Drug concentration in BALB/c mouse plasma at 800 mg/kg, po measured after 1 hr by LC-MS analysis; type: ADME, organism-based
[30] = Drug concentration in BALB/c mouse plasma at 1200 mg/kg, po measured after 1 hr by LC-MS analysis; type: ADME, organism-based
[31] = Aqueous solubility of the compound measured after 24 hrs by HPLC analysis; type: physicochemical
[32] = Cmax in female Sprague-Dawley rat at 5 mg/kg, iv measured upto 24 hrs by LC-MS analysis; type: ADME, organism-based; conditions: in vivo
[33] = AUC (0 to t) in female Sprague-Dawley rat at 20 mg/kg, po measured upto 24 hrs by LC-MS analysis; type: ADME, organism-based; conditions: in vivo

Compound | inhibition [1] [%] | inhibition [2] [%] | IC50 [3] [nM] | IC50 [4] [nM] | MIC (Staphylococcus aureus [5]) [µg/mL] | MIC (Staphylococcus aureus [6]) [µg/mL] | MIC (Staphylococcus aureus [7]) [µg/mL] | MIC (Staphylococcus aureus [8]) [µg/mL] | MIC (Pseudomonas aeruginosa) [µg/mL] | viability at 48 h, 800 µM [9] [%] | viability at 800 µM (HepG2) [%] | hemolysis at 1 h, 64 ug/ml [10] [%] | hemolysis at 1 h, 256 ug/ml [11] [%] | selectivity ratio [12] | Activity (Staphylococcus aureus [13]) | Activity (Staphylococcus aureus [14]) | Activity (Staphylococcus aureus [15]) | Activity (Cell membrane [16]) | fold change (FC) (Cell membrane [17]) | fold change (FC) (Cell membrane [18]) | further results
COc1c(Br)cccc1N1CC(c2nc3ccccc3n2C)CC1=O (stereo not given) | 99.3 | 89.6 | 199 | 35.9 | 2 (≈ 5 µM) | 1 (≈ 2.5 µM) | 2 (≈ 5 µM) | 1 (≈ 2.5 µM) | > 32 | > 65 | > 65 | 1.9 | 8.1 | > 128 | Dose-Dependent Effect | Below limit of detection | Below limit of detection | Active | 1.5 | 2.4 | Activity (Cell membrane [19]): Active; Activity (Cell membrane [20]): Active; Activity [21]: Active; Activity [22]: Non-Toxic; Activity [23]: Non-Toxic; Activity [24]: Non-Toxic; Activity [25]: Non-Toxic; Activity [26]: Non-Toxic; Activity [27]: Non-Toxic; Activity [28]: Non-Toxic; concentration at 1 h [29]: 32700 ng/mL; concentration at 1 h [30]: 46500 ng/mL; solubility at 24 h [31]: 467 µg/mL (≈ 1170 µM); Cmax [32]: 2720 ng/mL; AUCt [33]: 3127 ng·h/mL
Cc1c(Br)cccc1N1CC(c2nc3ccccc3n2C)CC1=O (stereo not given) | 98.7 | 88.9 | 174 | 35.9 | 1 (≈ 2.6 µM) | 1 (≈ 2.6 µM) | 2 (≈ 5.2 µM) | 1 (≈ 2.6 µM) | > 32 | > 75 | > 75 | 3.1 | 9.9 | > 128 | Dose-Dependent Effect | Below limit of detection | Below limit of detection | Active | 1.6 | 2.6 | Activity (Cell membrane [19]): Active; Activity (Cell membrane [20]): Active; Activity [21]: Active; Activity [22]: Non-Toxic; Activity [23]: Non-Toxic; Activity [24]: Non-Toxic; Activity [25]: Non-Toxic; Activity [26]: Non-Toxic; Activity [27]: Non-Toxic; Activity [28]: Non-Toxic; concentration at 1 h [29]: 53600 ng/mL; concentration at 1 h [30]: 72100 ng/mL; solubility at 24 h [31]: 388 µg/mL (≈ 1010 µM); Cmax [32]: 3240 ng/mL; AUCt [33]: 11149.1 ng·h/mL
